# From US20070208063A1, “Imidazole-based compounds, compositions comprising them and methods of their use” (priority 2006, published 2007)
# Experiments:
# circulating lymphocytes = experiment: Effects on lymphocytes in mice: whole blood counts (CBC); format: in vivo, mice (F1 hybrids of 129/B6 strain)
# Procedure: Unless otherwise indicated, the term “circulating lymphocyte reduction factor” or “CLRF” means the decrease in the number of circulating lymphocytes in mice caused by oral administration of a single dose of a compound at 100 mg/kg, as determined by the method described in the Examples, below. Compounds were administered by oral gavage or in drinking water. For oral dosing experiments, compounds were resuspended from crystals at 10 mg/ml in vehicle (e.g., water). Mice (F1 hybrids of 129/B6 strain) were gavaged with a single 100 mg/kg dose of compound (equivalent to 100 mpk of the free base for each compound) or a vehicle-only control, and returned to their cages. Mice were anesthetized using isofluorane eighteen hours after dosing and tissues were collected for analysis as described below. For drinking water studies, compounds were dissolved at 50 mg/L in acidified water (pH=2.8) containing 10 g/L glucose. The mice were allowed free access to compound-containing water (or glucose solution as a control) for 72 hours. At the end of 72 hours, tissues were collected for analysis. CBC measurements were obtained as follows. Mice were anesthetized with isofluorane and blood was collected from the retroorbital plexus into EDTA blood collection tubes (Capiject-MQK, Terumo Medical Corp., Elkton, Md.). […]
# [1] = system: lymphocyte egress from the thymus; experiment: Effects on lymphocytes in mice: FACS of thymus T cells; format: in vivo, mice (F1 hybrids of 129/B6 strain); conditions: administered in drinking water; FIGS. 1-3
# Procedure: Compounds were administered by oral gavage or in drinking water. For oral dosing experiments, compounds were resuspended from crystals at 10 mg/ml in vehicle (e.g., water). Mice (F1 hybrids of 129/B6 strain) were gavaged with a single 100 mg/kg dose of compound (equivalent to 100 mpk of the free base for each compound) or a vehicle-only control, and returned to their cages. Mice were anesthetized using isofluorane eighteen hours after dosing and tissues were collected for analysis as described below. For drinking water studies, compounds were dissolved at 50 mg/L in acidified water (pH=2.8) containing 10 g/L glucose. The mice were allowed free access to compound-containing water (or glucose solution as a control) for 72 hours. At the end of 72 hours, tissues were collected for analysis. Flow cytometry (FACS) measurements were obtained as follows. Twenty five μl whole blood was lysed by hyoptonic shock, washed once in 2 ml FACS wash buffer (FWB: PBS/0.1% BSA/0.1% NaN3/2 mM EDTA) and stained for 30 minutes at 4° C. in the dark with a combination of fluorochrome-conjugated antibodies diluted in 50 μl FWB. After staining, the cells were washed once with 2 ml FWB and resuspended in 300 μl FWB for acquisition. […] Samples were analyzed using a FACSCalibur flow cytometer and CellQuest Pro software (Becton Dickinson Immunocytometry Systems, San Jose, Calif.). […]
# S1P lyase = biological target: T1, S1P lyase (Mus musculus, UniProt Q8R0X7); conditions: when administered to mice; Schwab et al. 2005; cited from earlier work
# T1 construct: host or cells: mice (in vivo)
# T1 sequence (Q8R0X7 1-568): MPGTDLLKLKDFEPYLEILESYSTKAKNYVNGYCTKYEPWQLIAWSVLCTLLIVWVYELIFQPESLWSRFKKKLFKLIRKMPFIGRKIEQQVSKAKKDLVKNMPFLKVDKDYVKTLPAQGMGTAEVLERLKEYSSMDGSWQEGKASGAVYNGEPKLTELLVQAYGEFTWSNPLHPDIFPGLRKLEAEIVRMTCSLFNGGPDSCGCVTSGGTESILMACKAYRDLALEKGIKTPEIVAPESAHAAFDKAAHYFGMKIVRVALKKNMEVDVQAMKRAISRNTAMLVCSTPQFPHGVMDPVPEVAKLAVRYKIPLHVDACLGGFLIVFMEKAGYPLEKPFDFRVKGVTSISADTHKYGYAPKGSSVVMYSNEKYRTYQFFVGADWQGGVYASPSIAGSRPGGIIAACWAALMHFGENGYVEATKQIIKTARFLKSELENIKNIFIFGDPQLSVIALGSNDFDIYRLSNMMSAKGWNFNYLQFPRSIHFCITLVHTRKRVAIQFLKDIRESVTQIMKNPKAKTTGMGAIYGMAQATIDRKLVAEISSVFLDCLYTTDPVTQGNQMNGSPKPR
# [2] = system: lymphocytes / mature T cells in the thymus; conditions: administration to rats and mice; cited from earlier work
# immunological effects = conditions: studies in humans; Thuvander 1994, Houben 1992; cited from earlier work
SMILES,effect on circulating lymphocytes (circulating lymphocytes),effect on lymphocyte egress from the thymus [1],S1P lyase activity (S1P lyase),lymphopenia [2],mature T cells in the thymus [2],immunological effects (immunological effects)
"CC(=O)c1nc(C)c([C@@H](O)[C@H](O)[C@H](O)CO)s1 [Compound 2, 1-(4-methyl-5-((1S,2R,3R)-1,2,3,4-tetrahydroxybutyl)thiazol-2-yl)ethanone]",little or no effect on circulating lymphocytes,–,–,–,–,–
"CC(=O)c1nc(C(O)C(O)C(O)CO)c[nH]1 (stereo not shown) [THI, 2-acetyl-4-tetrahydroxybutylimidazole]",capable of reducing circulating lymphocytes in mice,diminished lymphocyte egress from the thymus,inhibits S1P lyase activity,induces lymphopenia,causes the accumulation of mature T cells in the thymus,no immunological effects
